Laboratory results taken from patent US20050197385A1, “Use of rotigotine for treatment or prevention of dopaminergic neuron loss” (Schwarz Pharma AG, priority 2004, published 2005).

Assays:
[1] = system: neurons of the substantia nigra; test: Acute MPTP model (including apoptosis), FluoroJade stain of degenerating neurons; format: in vivo; settings: mouse; for Number of degenerating neurons: FluoroJade stain
Method: About 16 hours before, Rotigotine is administered in doses of 0.3, 1 or 3 mg/kg each as the so-called ‘Slow-Release-Formulation’. […] After 24 hours the animals are killed and the brains fixed. The brain sections are stained with FluoroJade for identification of degenerated cells. The immunohistochemical marking of tyrosine-hydroxylase served the purpose of identification of dopaminergic neurons.

[2] = system: dopamine transporter (DAT) in striatum; test: Subacute MPTP model, [125I]PE2I dopamine transporter binding in striatum sections; format: in vivo; settings: mouse
Method: Groups 1-7 were treated in the following manner: Group 1: Untreated control; Group 2: Control group treated with the excipient solution for Rotigotine and MPTP; Group 3: MPTP treatment; Group 4: MPTP treatment plus Rotigotine 0.3 mg/kg; Group 5: MPTP treatment plus Rotigotine 1.0 mg/kg; Group 6: MPTP treatment plus Rotigotine 3.0 mg/kg; Group 7: Treatment only with Rotigotine (3.0 mg/kg)
For intoxication, mice are administered 80 mg/kg of the neurotoxin 1-methyl-4-phenyl-1,2,3,6-tetrahydro-pyridine (MPTP) (in portions of 20 mg/kg at two-hour intervals, Group 3-6 in FIGS. 1 and 2), leading to a degeneration of the neurons of the substantia nigra of about 50-60% (maximum degeneration in Group 3 in FIGS. 1 and 2). Rotigotine is administered daily in doses of 0.3, 1, or 3 mg/kg each for 7 days in the so-called ‘Slow-Release-Formulation’ (see Working Example 2) (Group 4-6 in FIGS. 1 and 2). A group of MPTP treated animals (Group 3) is given Rotigotine excipient solution (see Working Example 2 without Rotigotine HCl) and serves as reference. […] PE2I ([^125I]-(E)-N(3-iodoprop-2-enyl)-2β-carboxymethyl-3β-(4′-methylphenyl)-nortropane) in phosphate buffer, pH 7.4, in order to mark the quantity of the still present dopamin transporter in striatum and thereby to indicate the quantity of functioning nerve ends.

[3] = system: MPTP-treated (macaque) monkeys; test: Progressive MPTP primate model (pilot study); format: in vivo
Method: In the model used, which reflects the progressive course of the Parkinson's disease on primates, subliminal toxic doses of MPTP were injected in (macaque) monkeys for several days. The Parkinson symptoms developed in the model in a period of about 2 weeks. As soon as a certain degree of damage was reached, Rotigotine was injected daily in a formulation that built up a continuous plasma level for 24 h. The MPTP injections were stopped as soon as the motor activity was reduced by a certain degree (approx. 5 days later). The behavior of the animals was assessed on a daily basis.
At the end of the Rotigotine injection or washout phase, a group each of animals was killed and the condition of the basal ganglion was examined histologically and biochemically.

Parkinson patients = settings: cited from earlier work
Parkinson models = settings: in vivo; cited from earlier work

Row | SMILES | Number of degenerating neurons ([1]; MPTP excipient + Rotigotine 3.0 mg/kg (Rotigotine alone)) | Number of degenerating neurons ([1]; MPTP intoxication + Rotigotine 0.3 mg/kg) | Number of degenerating neurons ([1]; MPTP intoxication + Rotigotine 1.0 mg/kg) | Number of degenerating neurons ([1]; MPTP intoxication + Rotigotine 3.0 mg/kg) | Staining of tyrosine hydroxylase, treated versus untreated animals ([1]; acute MPTP model, 24 hours after MPTP, immunohistochemistry) | Decrease in the number of degenerated neurons after application of Rotigotine ([1]; acute MPTP model, FluoroJade, versus MPTP alone) | Number of degenerating neurons in the mesencephalon ([1]; acute phase after MPTP) | Survival of the neurons and their nerve ends (dopamine transporter quantity in striatum) ([2]; MPTP 80 mg/kg, Rotigotine 0.3, 1 or 3 mg/kg daily for 7 days, Slow-Release-Formulation) | Dopaminergic innervation of the striatum (dopamine transporter density) ([2]; subacute phase after MPTP) | Content of pre-pro-enkephalin ([3]; basal ganglion, after the treatment and the washout phase) | Motor activity of the animals ([3]; daily Rotigotine injection, during the treatment and in the following washout phase) | Density of the nerve endings in the striatum ([3]; end of Rotigotine injection or washout phase, compared to untreated animals) | Dyskinesias (Parkinson-associated motor function disorders) (Parkinson patients; patients with prominent dyskinesias, Metman et al 2001) | UPDRS (Unified Parkinson's Disease Rating Scale) score (Parkinson patients; transdermal administration to Parkinson patients, WO 02/089777) | Activity in Parkinson models (Parkinson models)
1 | CCCN(CCc1cccs1)C1CCc2c(O)cccc2C1 (single isomer, unassigned; (-)) [Rotigotine, (−)-5,6,7,8-Tetrahydro-6-[propyl[2-(2-thienyl)ethyl]amino]-1-naphthol] | 3.8 | 66.7 | 76.8 | 34.9 | does not show any difference | about 50% | reduced | improves the survival of the neurons and their nerve ends in dependence of the dosage | almost completely preserved or restored | tendency toward normalization | clearly improved | significantly increased | improved | improvement | –
2 | CCCN(CCc1cccs1)[C@@H]1CCc2c(O)cccc2C1 [(R)-enantiomer] | – | – | – | – | – | – | – | – | – | – | – | – | – | – | inactive
